The text below walks through data of US11234437B2 (priority 2017, dated 2022).

The test system of series [1] is Fusarium culmorum. Briefly: whole plant or invertebrate. The series is classed as in vivo. As to conditions: in Triticum aestivum, read-out: control of Fusarium culmorum.
In series [2] the test system is Gibberella zeae (Fusarium graminearum). As to the kind of experiment: whole plant or invertebrate. The following applies: in Triticum aestivum, read-out: control of Gibberella zeae. The series is classed as in vivo.
Series [3] relates to Magnaporthe grisea (Pyricularia oryzae). As to the kind of experiment: microbe, parasite or virus in culture. It is filed as cell-based. The following applies: read-out: control of Magnaporthe grisea.
Series [4] relates to Monographella nivalis (Microdochium nivale). Briefly: Monographella nivalis (Microdochium nivale) / liquid culture (foot rot cereals). It is filed as cell-based. As to conditions: compared to untreated control. As for the experimental part:
Monographella nivalis (Microdochium nivale)/Liquid Culture (Foot Rot Cereals)
Conidia of the fungus from cryogenic storage are directly mixed into nutrient broth (PDB potato dextrose broth). After placing a (DMSO) solution of test compound into a microtiter plate (96-well format), the nutrient broth containing the fungal spores is added. The test plates are incubated at 24° C. and the inhibition of growth is determined photometrically 4-5 days after application.

Another series deals with Sclerotinia sclerotiorum. Briefly: Sclerotinia sclerotiorum / liquid culture (cottony rot). The series is classed as cell-based. The following applies: compared to untreated control. As for the experimental part: Sclerotinia sclerotiorum/Liquid Culture (Cottony Rot)
Mycelia fragments of a newly grown liquid culture of the fungus are directly mixed into nutrient broth (Vogels broth). After placing a (DMSO) solution of test compound into a microtiter plate (96-well format) the nutrient broth containing the fungal material is added. The test plates are incubated at 24° C. and the inhibition of growth is determined photometrically 3-4 days after application.

The test system of series [5] is Botryotinia fuckeliana (Botrytis cinerea). As to the kind of experiment: Botryotinia fuckeliana (Botrytis cinerea) / liquid culture (gray mould). It is filed as cell-based. As to conditions: compared to untreated control. How it is done:
Botryotinia fuckeliana (Botrytis cinerea)/Liquid Culture (Gray Mould)
Conidia of the fungus from cryogenic storage are directly mixed into nutrient broth (Vogels broth). After placing a (DMSO) solution of test compound into a microtiter plate (96-well format), the nutrient broth containing the fungal spores is added. The test plates are incubated at 24° C. and the inhibition of growth is determined photometrically 3-4 days after application.

The subject of series [6] is Glomerella lagenarium (Colletotrichum lagenarium). As to the kind of experiment: Glomerella lagenarium (Colletotrichum lagenarium) / liquid culture (anthracnose). The series is classed as cell-based. The following applies: Colletotrichum orbiculare, compared to untreated control. How it is done:
Conidia of the fungus from cryogenic storage are directly mixed into nutrient broth (PDB potato dextrose broth). After placing a (DMSO) solution of test compound into a microtiter plate (96-well format), the nutrient broth containing the fungal spores is added. The test plates are incubated at 24° C. and the inhibition of growth is measured photometrically 3-4 days after application.

In series [7] the test system is Fusarium culmorum. As to the kind of experiment: microbe, parasite or virus in culture. As to conditions: read-out: control of Fusarium culmorum. The series is classed as cell-based.
For another series, the system named is Gaeumannomyces graminis. Briefly: Gaeumannomyces graminis / liquid culture (take-all of cereals). The following applies: compared to untreated control. It is filed as cell-based. How it is done: Mycelial fragments of the fungus from cryogenic storage were directly mixed into nutrient broth (PDB potato dextrose broth). After placing a (DMSO) solution of test compound into a microtiter plate (96-well format), the nutrient broth containing the fungal spores is added. The test plates are incubated at 24° C. and the inhibition of growth is determined photometrically 4-5 days after application.

Molecules are shown by their SMILES.

`CC(C)C[C@@](C)(Cc1ccccc1)NC(=O)c1cnc2c(F)c(F)ccc2c1` [Compound F-13, N-[(1S)-1-benzyl-1,3-dimethyl-butyl]-7,8-difluoro-quinoline-3-carboxamide]: the pest or weed control at 200 ppm (in the series with Fusarium culmorum [1]; in series [2]) was ≥ 80% in each case. For the same compound, in series [3], the inhibition of growth at 20 ppm is ≥ 80%.
As to `Cc1cccc2cc(C(=O)N[C@@](C)(Cc3ccccc3)CC(F)(F)F)cnc12` [Compound F-17, N-[(1S)-1-benzyl-3,3,3-trifluoro-1-methyl-propyl]-8-methyl-quinoline-3-carboxamide], the inhibition of growth at 20 ppm (in series [4]; in series [3]; with Sclerotinia sclerotiorum) was ≥ 80% in each case.
On to `C[C@](Cc1ccccc1)(CC(F)(F)F)NC(=O)c1cnc2c(Cl)cccc2c1` [Compound F-19, N-[(1S)-1-benzyl-3,3,3-trifluoro-1-methyl-propyl]-8-chloro-quinoline-3-carboxamide], for which the pest or weed control at 200 ppm in series [2] was ≥ 80%. For the same compound, the inhibition of growth at 20 ppm (in series [3]; with Sclerotinia sclerotiorum) was ≥ 80% in each case.
As to `C[C@](Cc1ccccc1)(CC(F)(F)F)NC(=O)c1cnc2c(F)c(F)ccc2c1` [Compound F-21, N-[(1S)-1-benzyl-3,3,3-trifluoro-1-methyl-propyl]-7,8-difluoro-quinoline-3-carboxamide], the inhibition of growth at 20 ppm (in series [3]; with Sclerotinia sclerotiorum) was ≥ 80% in each case.
On to `C[C@@](Cc1ccccc1)(CC1(F)CC1)NC(=O)c1cnc2c(F)cccc2c1` [Compound F-23, N-[(1R)-1-benzyl-2-(1-fluorocyclopropyl)-1-methyl-ethyl]-8-fluoro-quinoline-3-carboxamide], for which the inhibition of growth at 200 ppm (in series [5]; in [6]; in the series on Fusarium culmorum [7]) was ≥ 80% throughout. The pest or weed control at 200 ppm with Fusarium culmorum [1] was ≥ 80%. The inhibition of growth at 20 ppm in series [4] and in series [3] was ≥ 80% throughout.
For `CC1(C[C@@](C)(Cc2ccccc2)NC(=O)c2cnc3c(F)cccc3c2)CC1` [Compound F-26, N-[(1S)-1-benzyl-1-methyl-2-(1-methylcyclopropyl)ethyl]-8-fluoro-quinoline-3-carboxamide], the inhibition of growth at 200 ppm (in series [5]; in [6]; with Fusarium culmorum [7]) was ≥ 80% each time. For the same compound, the inhibition of growth at 20 ppm in [4] and in series [3] was ≥ 80% each time.
Consider `CC(C)C[C@@](C)(Cc1cccc(F)c1)NC(=O)c1cnc2c(F)cccc2c1` [Compound F-30, 8-fluoro-N-[(1S)-1-[(3-fluorophenyl)methyl]-1,3-dimethyl-butyl]quinoline-3-carboxamide], for which the inhibition of growth at 200 ppm (in series [5]; in [6]; in the series with Fusarium culmorum [7]) was ≥ 80% in each case. Besides, the pest or weed control at 200 ppm with Fusarium culmorum [1] was ≥ 80%. Besides, the inhibition of growth at 20 ppm in series [4] and in [3] was ≥ 80% each time.
For `CC(F)(F)C[C@](C)(Cc1ccccc1)NC(=O)c1cnc2c(F)cccc2c1` [Compound F-32, N-[(1S)-1-benzyl-3,3-difluoro-1-methyl-butyl]-8-fluoro-quinoline-3-carboxamide], the pest or weed control at 200 ppm in series [2] is ≥ 80%. Moreover, the inhibition of growth at 20 ppm (in series [3]; in the series on Sclerotinia sclerotiorum) was ≥ 80% each time.
For `C[C@@](Cc1ccccc1)(CC(F)(F)F)NC(=O)c1cnc2ccccc2c1` [Compound F-33, N-[(1R)-1-benzyl-3,3,3-trifluoro-1-methyl-propyl]quinoline-3-carboxamide], the inhibition of growth at 200 ppm (in series [5]; in series [6]; in the series on Fusarium culmorum [7]) was ≥ 80% each time. Moreover, the pest or weed control at 200 ppm with Fusarium culmorum [1] is ≥ 80%.
With `C=C(Cl)C[C@@](C)(Cc1ccccc1)NC(=O)c1cnc2c(F)cccc2c1` [Compound F-36], the inhibition of growth at 200 ppm (in series [5]; in series [6]; in the series on Fusarium culmorum [7]) was ≥ 80% throughout.
Turning to `CC(C)CC(C)(Cc1ccccc1)NC(=O)c1cnc2c(F)cccc2c1` (centres unmarked) [X.002, N-(1-benzyl-1,3-dimethyl-butyl)-8-fluoro-quinoline-3-carboxamide], the melting point (as a rule, the temperature of the solid-liquid transition) lay within 110 to 112 °C. Also, the inhibition of growth at 20 ppm in the series with Gaeumannomyces graminis was ≥ 80%. The inhibition of growth at 20 ppm in [4] is ≥ 80%. In addition, the inhibition of growth at 20 ppm in series [3] was ≥ 80%.
In turn, `CC(Cc1ccccc1)(CC(F)(F)F)NC(=O)c1cnc2c(F)cccc2c1` (centres unmarked) [X.006, N-(1-benzyl-3,3,3-trifluoro-1-methyl-propyl)-8-fluoro-quinoline-3-carboxamide] displayed a melting point of 158 to 160 °C. Further, in the series with Gaeumannomyces graminis, the inhibition of growth at 20 ppm is ≥ 80%. The pest or weed control at 200 ppm in [2] is ≥ 80%. For the same compound, the inhibition of growth at 20 ppm in series [3] was ≥ 80%.
Turning to `CC(Cc1ccccc1)(CC(F)(F)F)NC(=O)c1cnc2c(F)c(F)ccc2c1` (centres unmarked) [X.007, N-(1-benzyl-3,3,3-trifluoro-1-methyl-propyl)-7,8-difluoro-quinoline-3-carboxamide], the pest or weed control at 200 ppm in [2] is ≥ 80%. Besides, the inhibition of growth at 20 ppm (in [3]; in the series with Sclerotinia sclerotiorum) was ≥ 80% throughout.
On to `CC(C)CC(C)(Cc1ccccc1)NC(=O)c1cnc2c(F)c(F)ccc2c1` (centres unmarked) [X.008, N-(1-benzyl-1,3-dimethyl-butyl)-7,8-difluoro-quinoline-3-carboxamide], for which the melting point fell in the range of 114 to 116 °C. Besides, the inhibition of growth at 20 ppm with Gaeumannomyces graminis was ≥ 80%. For the same compound, the pest or weed control at 200 ppm in series [2] is ≥ 80%. For the same compound, in [4], the inhibition of growth at 20 ppm is ≥ 80%. The inhibition of growth at 20 ppm in series [3] is ≥ 80%.
`CC(C)CC(C)(Cc1cccc(F)c1)NC(=O)c1cnc2c(F)cccc2c1` (centres unmarked) [X.011, 8-fluoro-N-[1-[(3-fluorophenyl)methyl]-1,3-dimethyl-butyl]quinoline-3-carboxamide]: the melting point lay within 45 to 47 °C. The inhibition of growth at 20 ppm with Gaeumannomyces graminis is ≥ 80%. For the same compound, the inhibition of growth at 20 ppm in series [4] was ≥ 80%. The inhibition of growth at 20 ppm in series [3] was ≥ 80%.
`CC(Cc1cccc(F)c1)(CC(F)(F)F)NC(=O)c1cnc2c(F)cccc2c1` (centres unmarked) [X.012, 8-fluoro-N-[3,3,3-trifluoro-1-[(3-fluorophenyl)methyl]-1-methyl-propyl]quinoline-3-carboxamide] returned a melting point of 149 to 151 °C. The pest or weed control at 200 ppm in series [2] is ≥ 80%. For the same compound, the inhibition of growth at 20 ppm in [4] was ≥ 80%. For the same compound, in series [3], the inhibition of growth at 20 ppm was ≥ 80%. Moreover, in the series on Sclerotinia sclerotiorum, the inhibition of growth at 20 ppm was ≥ 80%.
Take `CC(Cc1ccccc1)(CC1(F)CC1)NC(=O)c1cnc2c(F)cccc2c1` (centres unmarked) [X.013, N-[1-benzyl-2-(1-fluorocyclopropyl)-1-methyl-ethyl]-8-fluoro-quinoline-3-carboxamide]: the melting point lay within 119 to 121 °C. Moreover, in series [5], the inhibition of growth at 200 ppm was ≥ 80%. The inhibition of growth at 200 ppm in series [6] is ≥ 80%. Moreover, in the series on Fusarium culmorum [7], the inhibition of growth at 200 ppm was ≥ 80%. In addition, in series [4], the inhibition of growth at 20 ppm is ≥ 80%. Also, the inhibition of growth at 20 ppm in [3] is ≥ 80%. The inhibition of growth at 20 ppm in the series on Sclerotinia sclerotiorum was ≥ 80%.
The compound `Cc1cccc2cc(C(=O)NC(C)(Cc3ccccc3)CC(C)C)cnc12` (centres unmarked) [X.017, N-(1-benzyl-1,3-dimethyl-butyl)-8-methyl-quinoline-3-carboxamide] displayed a melting point of 132 to 133 °C. Further, the inhibition of growth at 20 ppm with Gaeumannomyces graminis was ≥ 80%. In addition, the pest or weed control at 200 ppm in series [2] is ≥ 80%. The inhibition of growth at 20 ppm in series [4] was ≥ 80%. Also, in series [3], the inhibition of growth at 20 ppm is ≥ 80%.
The compound `CC(C)CC(C)(Cc1ccccc1)NC(=O)c1cnc2c(Cl)cccc2c1` (centres unmarked) [X.018, N-(1-benzyl-1,3-dimethyl-butyl)-8-chloro-quinoline-3-carboxamide] showed a melting point of 147 to 148 °C. In the series with Gaeumannomyces graminis, the inhibition of growth at 20 ppm is ≥ 80%. In addition, in series [4], the inhibition of growth at 20 ppm was ≥ 80%. Also, the inhibition of growth at 20 ppm in series [3] is ≥ 80%.
For `CC(C)CC(C)(Cc1ccccc1)NC(=O)c1cnc2ccccc2c1` (centres unmarked) [X.019, N-(1-benzyl-1,3-dimethyl-butyl)quinoline-3-carboxamide], the melting point was 121 to 123 °C. Also, the inhibition of growth at 20 ppm with Gaeumannomyces graminis is ≥ 80%. Besides, in series [2], the pest or weed control at 200 ppm was ≥ 80%. In series [4], the inhibition of growth at 20 ppm is ≥ 80%.
